Test results as given in patent US20260166125A1, “NLRP12 AND NLRC5 MODULATORS AND METHODS FOR USING THE SAME TO MODULATE DISEASES” (St. Jude Children's Research Hospital, Inc., priority 2022, published 2026).
Peptide text beside a SMILES is read from it. * marks the point of attachment. Cbz = O=C(OCc1ccccc1)*; CH2F = FC*

B1: high-mobility group box 1 protein (protein, UniProt P63158 1-215, looked up)
High mobility group protein B1: MGKGDPKKPRGKMSSYAFFVQTCREEHKKKHPDASVNFSEFSKKCSERWKTMSAKEKGKFEDMAKADKARYEREMKTYIPPKGETKKKFKDPNAPKRPPSAFFLFCSEYRPKIKGEHPGLSIGDVAKKLGEMWNNTAADDKQPYEKKAAKLKEKYEKDIAAYRAKGKPDAAKKGVVKAEKSKKKKEEEDDEEDEEDEEEEEEEEDEDEEEDDDDE
notes: recombinant mouse HMGB1, a DAMP
B2: S100A8/A9: recombinant mouse S100A8/S100A9 heterodimer, a DAMP (protein, UniProt P27005 2-89; P31725 2-113, looked up)
Protein S100-A8: PSELEKALSNLIDVYHNYSNIQGNHHALYKNDFKKMVTTECPQFVQNINIENLFRELDINSDNAINFEEFLAMVIKVGVASHKDSHKE
Protein S100-A9: ANKAPSQMERSITTIIDTFHQYSRKEGHPDTLSKKEFRQMVEAQLATFMKKEKRNEALINDIMEDLDTNQDNQLSFEECMMLMAKLIFACHEKLHENNPRGHGHSHGKGCGK

Key:
[1] = test system: bone marrow-derived macrophages (BMDMs); assay: Real-time imaging for cell death (propidium iodide incorporation, IncuCyte); format: cell-based, mouse; conditions: WT BMDMs; stimuli alone or combined; 48 hours (FIG. 1, FIG. 2)
Description: (§1) Bone Marrow-Derived Macrophages (BMDMs). Primary mouse BMDMs from wild-type and indicated mutant mice were grown for 6 days in Iscove's Modified Dulbecco's Medium (IMDM; Thermo Fisher Scientific) supplemented with 10% Fetal Bovine Serum (Biowest), 30% L929-conditioned media, 1% non-essential amino acids (Thermo Fisher Scientific) and 1% penicillin and streptomycin (Thermo Fisher Scientific). BMDMs at a density of 1×10^6 cells/well in 12-well plates or 5×10^5 cells/well in 24-well plates were seeded into growth media overnight before use.
(§2) Cell Stimulation. BMDMs were stimulated with the following PAMPs, DAMPs and inhibitors alone or in combinations where indicated: 50 μM Hemin (heme; Sigma-Aldrich), 0.75 μg/mL Pam3CSK4 (Pam3; InvivoGen), 15 ng/mL ultrapure lipopolysaccharide (LPS) from E. coli 0111:B4 (InvivoGen), 500 ng/ml R848 (InvivoGen), 100 ng/mL TNF-α (Peprotech), 1 μg/mL poly(I:C) (Invivogen), 200 ng/mL monosodium urate crystals (Invivogen), 200 ng/mL recombinant mouse S100A8/S100A9 heterodimer (bio-techne), 200 ng/mL recombinant mouse HMGB1 (Abcam), 25 μM Z-VAD(OMe)-FMK (zVAD; Cayman Chemical) and 45 μM Necrostatin 2 racemate (Nec-1; Selleckchem).
(§3) Real-Time Imaging for Cell Death. The kinetics of cell death were monitored using the IncuCyte S3 or SX5 (Sartorius) live-cell analysis system. BMDMs (5×10^5 cells/well) were seeded in 24-well tissue culture plates and were treated with the indicated stimuli. Cell death was measured by propidium iodide (PI; Life Technologies) incorporation following the manufacturer's protocol. The plate was scanned for the indicated time durations where fluorescent and phase-contrast images were acquired in real-time every 1 hour. PI-positive dead cells are marked with a red mask and were quantified using the software package supplied with the IncuCyte imager.

[2] = test system: heme plus Pam3-treated BMDMs; assay: Inhibitor effect on heme plus Pam3-induced cell death in BMDMs; format: cell-based, mouse
Description: as §1, §2, §3

Row | Molecule | cell death [1] | further results
1 | lipopolysaccharide [LPS] | Minimal cell death | 
2 | polyinosinic:polycytidylic acid [poly(I:C)] | Minimal cell death | 
3 | CN1C(=O)NC(Cc2c[nH]c3c(Cl)cccc23)C1=O (racemic) [Nec-1, Necrostatin 2 racemate] |  | effect on cell death ([2]; WT BMDMs, heme plus Pam3, Nec-1 alone, compared to PBS control): partially reduced cell death
4 | Pam3CSK4 | Minimal cell death | 
5 | O=c1[nH]c(=O)c2[nH]c([O-])nc2[nH]1.[Na+] [MSU, monosodium urate] | did not induce cell death | 
6 | CC(C)(O)c1coc(S(=O)(=O)NC(=O)Nc2c3c(cc4c2CCC4)CCC3)c1 [MCC950] |  | effect on cell death ([2]; heme plus Pam3-treated BMDMs, MCC950): did not prevent cell death
7 | COC(=O)C[C@H](NC(=O)[C@H](C)NC(=O)[C@@H](NC(=O)OCc1ccccc1)C(C)C)C(=O)CF [zVAD, Z-VAD(OMe)-FMK] (Cbz-Val-Ala-Asp(OMe)-CH2F) |  | effect on cell death ([2]; WT BMDMs, heme plus Pam3, combination of Nec-1 with zVAD): further reduced the cell death
8 | C=CC1=C(C)c2cc3[n-]c(cc4[n-]c(cc5nc(cc1n2)C(C)=C5C=C)c(C)c4CCC(=O)O)c(CCC(=O)O)c3C.[Cl-].[Fe+3] [heme, ferriprotoporphyrin IX chloride] | did not induce cell death | 
9 | B1 | did not induce cell death | 
10 | B2 | did not induce cell death | 
